Measurements reported in patent publication US20020142287A1, “High throughput assay to detect inhibitors of the map kinase pathway” (priority 2000, published 2002).
Entries after “also recorded” stand apart in the source; their conditions may differ.

How the values were obtained:
[1] = test system: SNB-19 cells; test: Growth-stimulated induction of c-fos and invasion-associated mRNA in quiescent cells plated into fresh growth media, Northern analysis; assay type: cell-based, human; conditions: for effect on expression of uPA, GnT-V and c-ets-1 mRNA induced by growth stimulation: 2 and 6 hr after plating into fresh growth media
Protocol: (§1) Procedure for Northern Blot. Surgical specimens were immediately frozen in liquid nitrogen upon resection. Total RNA was isolated from clinical glioma specimens and cultured brain tumor cells using guanidium isothiocyanate followed by […] centrifugation. 10-20 μg of total RNA per tumor cell line per lane were electrophoresed in an agarose-formaldehyde gel and transferred to Duralon nylon membranes (Stratagene, La Jolla, Calif.). After UV cross-linking, the blots were hybridized with a ^32P-radiolabeled cDNA probe synthesized by using a random priming kit (Stratagene, La Jolla, Calif.) and ExpressHyb solution (Clontech, Palo Alto, Calif.). The blots were then exposed to X-OMAT film (Kodak, Rochester, N.Y.) and the films were developed appropriately.
Modulators of the MAPK pathway also modulated the growth-stimulated mRNA expression of c-Fos and invasion-related protein MRNA expression. Quiescent SNB-19 cells were plated in fresh growth media either in the presence of 80 μM PD98059, a MEK/MAPKK inhibitor, or the absence of inhibitor, as a control. Induction was measured by observing MRNA expression over time (FIG. 6).
Quiescent SNB-19 cells were growth induced by plating into fresh growth media for 2 and 6 hr. c-Fos expression was monitored by observing the mRNA levels of the downstream genes uPA, GNT-V, and c-ets-1 (see FIG. 8).

[2] = test system: p42/p44 ERK/MAPK proteins; conditions: 50 μM U0126, SNB-19 cells
Protocol: Quiescent SNB-19 cells were plated into fresh growth media and incubated for 0.5, 1, 2, 3, 4, 6, and 8 hr, and the cells were harvested for Northern analysis (FIG. 10A-10C) and Western blot analysis (FIG. 10D).

[3] = test system: SNB-19 glioma cells; conditions: data not shown
[4] = test system: MEK/MAPK Kinase (MAPKK); conditions: cited from earlier work
[5] = test system: c-fos promoter/luciferase gene transfectant (clone 60) of SNB-19 glioma cells; test: Luciferase mRNA expression in stable c-fos promoter/luciferase gene transfectant, Northern analysis; assay type: cell-based, human; conditions: 1, 2, 3, 6, and 24 hr in the presence of inhibitor
Protocol: A quiescent c-fos promoter/luciferase gene transfectant (clone 60) was plated into fresh growth media and incubated for 1, 2, 3, 6, and 24 hr in the presence of MEK/MAPKK inhibitors, and the cells were harvested for detection of luciferase mRNA expression by Northern analysis. 10 μg of total RNA per lane were used.
The 498 bp promoter region of the human c-Fos gene was amplified by genomic PCR using sense primer 5′-[…]-3′ (SEQ ID No. 7) and antisense primer 5′-[…]-3′ (SEQ ID No. 8), ligated into the pCR II vector (Invitrogen, San Diego, Calif.). […] Antisense orientation of the c-fos promoter/pCR II plasmid was digested with Hind III and Xho I restriction enzymes and the digested fragment was ligated into the Hind III and Xho I sites of the luciferase vector pGL3-basic (Promega, Madison, Wis.). The c-fos promoter/pGL3 plasmid DNA was digested with Sma I and Xba I and the digested fragment was ligated into the Nru I and Xba I sites of the pcDNA 3 vector (Invitrogen). This final construct contains the luciferase gene under control of the c-fos promoter instead of the control of the CMV promoter. The plasmid DNA was stably transfected into human glioma SNB-19 cells using the cationic liposome system, DOTAP (Boehringer Mannheim, Indianapolis, Ind.). The transfected cells were further cultured for 3 weeks in selection medium containing 800 μg/ml of G418 and then individual clones were isolated with cloning rings. Isolated clones were further cultured for 4 weeks in selection medium and were examined for luciferase gene expression by Northern analysis. […] Three representative clones (34, 56, and 60) were further characterized.
The suppression of luciferase gene expression by inhibitors of MAPK pathway in the stable transfectants was determined.

[6] = test system: c-Fos protein in SNB-19 cells; test: Growth-stimulated c-Fos protein induction, Western blot; assay type: cell-based, human; conditions: 50 μM U0126, 1 μM FTI, 50 μM PD98059; for c-Fos protein induction: 0.5-8 hr after plating
Protocol: Quiescent SNB-19 cells were plated into fresh growth media and incubated for 0.5, 1, 2, 3, 4, 6, and 8 hr in the presence of inhibitors of the MAPK pathway, and the cells were harvested for c-Fos protein analysis by Western blot. 20 μg of total protein per lane were used. c-Fos protein induction without inhibitors was shown as a control.
Procedure for Western Blot. To detect c-Ets-1 and c-Fos protein expression in brain tumor cell lines, 20 μg of protein cell lysates were loaded on a 8% SDS-polyacrylamide gel immediately after boiling each sample in the presence of 2% mercaptoethanol. After electrophoresis, proteins were transferred to a PVDF membrane and the membrane was blocked with 5% BSA in PBS. The membrane was then incubated with either a 1:10,000 dilution of monoclonal anti-human c-Ets-1 antibody (Clone 47, Transduction Laboratory, Ky.) or anti-human c-Fos antibody (Santa Cruz Biotechnology, Inc.) in Tris-buffered saline pH 7.4 (TBS) containing 2% BSA and 0.1% Tween 20 for 1 h at room temperature. The membrane was then washed with TBS containing 2% BSA and 0.1% Tween 20 for 10 min, followed by washing twice with 0.1% Tween 20 in TBS. Next, the membrane was incubated with a 1:10000 dilution of horseradish peroxidase-conjugated anti-mouse IgG (Amersham, UK) for 1 h at room temperature in 2% BSA in TBS containing 0.1% Tween 20. The membrane was then washed as described above, and developed with the ECL Chemiluminescence detection system (Amersham, UK) according to manufacturer's instructions.

[7] = test system: SNB-19 cells; test: Induction of invasion-associated gene mRNA by phorbol ester, Northern analysis; assay type: cell-based, human; conditions: 150 nM PDBu, 24 hr incubation
Protocol: as §1
The effects of a test compound, a phorbol ester (a Protein Kinase C (PKC) activator), on the coordinated expression of a panel of sequences was determined. SNB-19 cells were cultured in the presence of 150 nM phorbol 12, 13-dibutyrate (PDBu, Sigma Chemical Co.) for 24 hr. Expression of GnT-V, c-ets-1, uPA, MMP-1, and MMP-3 mRNA was then assayed by northern blot on total RNA from the cells. A panel of nucleic acid probes corresponding to GnT-V, c-ets-1, uPA, MMP-1, and MMP-3 were prepared as described above and utilized to detect expression of the corresponding mRNA in treated or untreated SNB-19 cells. […]

[8] = test system: SNB-19 cells; test: Suppression of PDBu-mediated mRNA induction by a MAPKK inhibitor, Northern analysis; assay type: cell-based, human
Protocol: as §1
The assay was modified for use in the identification of compounds that can inhibit gene expression. To identify compounds that may affect the growth, migration or invasivity of tumor cells, the assay described below is provided. To activate the quiescent cells, SNB-19 glioma cells are cultured in the presence of 150 nM Phorbol 12, 13-dibutyrate (PDBu, Sigma Chemical Co.) for 24 hr. The cells are then contacted with a test compound that may affect expression of GnT-V, c-ets-1, uPA, MMP-1, or MMP-3. Compounds shown to inhibit expression of any, multiple, or all of the sequences are selected for further study. […]

In the case of COC[C@H]1OC(=O)c2coc3c2[C@@]1(C)C1=C(C3=O)[C@@H]2CCC(=O)[C@@]2(C)C[C@H]1OC(C)=O [Wortmannin], the “effect on expression of uPA, GnT-V and c-ets-1 mRNA induced by growth stimulation” value [1] is reported as “no effect”.
In the case of N#CC(=C(/N)Sc1ccccc1N)/C(C#N)=C(\N)Sc1ccccc1N [U0126], the “phosphorylation of p42/p44 ERK/MAPK” value [2] is reported as “completely inhibited”, the “growth-stimulated induction of GnT-V, uPA and c-ets-1 mRNA expression” value ([1]; 50 μM U0126, 0.5-8 hr after plating into fresh growth media) is reported as “strongly suppressed; also recorded: suppressed the induction” and the “adhesion-mediated protein tyrosine phosphorylation” value [3] is reported as “little effect”. For the same compound, the “potency as MEK/MAPKK inhibitor relative to PD98059” value [4] was 30 times, the “luciferase mRNA expression” value [5] was “greatly suppressed; also recorded: greater inhibition” and the “potency of inhibition of c-Fos protein induction (rank order)” value [6] was 50 μM U0126>1 μM FTI>50 μM PD98059. For the same compound, the c-Fos protein induction [6] was “completely inhibited”.
For COc1cc2ncnc(Nc3cccc(Br)c3)c2cc1OC [PD153035], the “effect on expression of uPA, GnT-V and c-ets-1 mRNA induced by growth stimulation” value [1] was “no effect”.
For CCCC(=O)O[C@@H]1[C@@H](C)[C@@]2(O)[C@@H](C=C(CO)C[C@]3(O)C(=O)C(C)=C[C@@H]23)[C@@H]2C(C)(C)[C@]12OC(=O)CCC [PDBu, Phorbol 12, 13-dibutyrate], the “induction of GnT-V, c-ets-1, uPA, MMP-1, and MMP-3 mRNA expression” value [7] was “marked induction; also recorded: induced”.
In the case of COc1cccc(-c2cc(=O)c3ccccc3o2)c1N [PD98059, 2′-amino-3′-methoxyflavone], the “growth-stimulated induction of c-fos, c-ets-1, GnT-V, and uPA mRNA expression” value ([1]; 80 μM PD98059, 0.5-8 hr after plating into fresh growth media) is reported as “suppression; also recorded: suppressed”, the “luciferase mRNA expression” value [5] is reported as “slightly suppressed” and the “luciferase mRNA expression” value ([5]; listed as PD98056) is reported as “suppress”. For the same compound, the “PDBu-induced GnT-V, c-ets-1, MMP-1, and MMP-3 mRNA induction (b19 also uPA)” value ([8]; 150 nM PDBu 24 hr, 15 and 80 μM PD98059, 15 μM) was “completely abolished”, the “uPA mRNA expression in PDBu-stimulated cells” value ([8]; 150 nM PDBu, PD98059 15 and 80 μM) was “decreased in a dose-dependent manner” and the “potency of inhibition of c-Fos protein induction (rank order)” value [6] was 50 μM U0126>1 μM FTI>50 μM PD98059. For the same compound, the c-Fos protein induction [6] was “weak suppression”.
